{"source": "patent US20240368118A1", "about": "“CEREBLON BINDING COMPOUNDS, COMPOSITIONS THEREOF, AND METHODS OF TREATMENT THEREWITH” (CELGENE CORPORATION, priority 2021, published 2024)", "target": "T1, AR (Homo sapiens, UniProt P10275)", "T1 construct": "endogenous in cells; host or cells: VCaP cells", "T1 sequence (P10275 1-920)": "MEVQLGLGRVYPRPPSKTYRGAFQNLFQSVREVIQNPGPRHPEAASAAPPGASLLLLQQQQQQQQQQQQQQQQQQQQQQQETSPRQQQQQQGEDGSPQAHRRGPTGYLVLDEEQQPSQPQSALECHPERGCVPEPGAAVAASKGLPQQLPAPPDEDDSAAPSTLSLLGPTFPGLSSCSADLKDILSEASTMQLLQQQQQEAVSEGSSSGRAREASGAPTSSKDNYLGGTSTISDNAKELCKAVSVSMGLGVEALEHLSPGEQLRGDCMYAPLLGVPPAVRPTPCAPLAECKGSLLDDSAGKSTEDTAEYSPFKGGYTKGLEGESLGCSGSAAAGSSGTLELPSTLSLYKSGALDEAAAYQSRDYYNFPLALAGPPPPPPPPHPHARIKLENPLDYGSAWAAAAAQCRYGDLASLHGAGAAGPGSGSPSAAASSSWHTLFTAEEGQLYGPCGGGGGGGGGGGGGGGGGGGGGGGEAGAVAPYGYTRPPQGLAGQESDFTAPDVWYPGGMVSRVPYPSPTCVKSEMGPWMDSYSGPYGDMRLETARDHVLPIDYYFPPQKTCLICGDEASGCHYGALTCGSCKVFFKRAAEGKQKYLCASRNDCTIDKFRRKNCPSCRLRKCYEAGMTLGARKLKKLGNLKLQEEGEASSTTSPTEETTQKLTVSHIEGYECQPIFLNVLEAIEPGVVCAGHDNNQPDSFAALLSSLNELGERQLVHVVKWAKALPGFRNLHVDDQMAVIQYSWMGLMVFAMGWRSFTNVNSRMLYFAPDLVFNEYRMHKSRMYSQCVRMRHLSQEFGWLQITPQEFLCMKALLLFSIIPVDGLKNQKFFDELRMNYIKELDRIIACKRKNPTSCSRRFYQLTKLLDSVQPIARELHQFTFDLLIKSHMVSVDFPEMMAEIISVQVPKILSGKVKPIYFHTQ", "assay": "VCAP AR Degradation Assay", "assay_type": "cell-based", "conditions": "VCaP cells, 24 h; for DC50: AR ELISA, concentration when AR level = 50% of DMSO control; for Ymin: lowest AR level normalized to DMSO control", "procedure": "VCAP AR Degradation Assay. Test compounds were pre-dispensed into a Corning CellBind 96-well clear bottom plate (Cat #3300) using an acoustic dispenser to make a 10-point concentration series at 1:3 dilution for each compound. The final top concentration of each compound was 5 μM. DMSO at a final concentration of 0.1% was used as a control. VCaP cells cultured in DMEM with 8% fetal bovine serum (FBS) were seeded at 50K cells per well in a 200 μL volume into the compound plate and incubated at 37° C. in a C02 incubator for 24 h. The medium was carefully removed from the cells and the plate was placed on ice. One hundred μL of ice-cold 1× cell lysis buffer from Cell Signaling Technologies (Cat #9803) was added to each well of the cells and the plate was incubated at 4° C. on a shaker for 1 h. Fifteen μL of cell lysate was used for AR ELISA detection using a PathScan Total Sandwich AR ELISA kit (Cell Signaling Technology, Cat #12580). AR levels in compound-treated wells were normalized to that of DMSO control and expressed as percent of control (PoC) (y). A Four Parameter Logistic Model (Sigmoidal Dose-Response Model) was used to determine the compound's DC50, and EC50, using the following equation: […]\nThe lowest measured AR level normalized to DMSO control in response to compound treatment, termed Y value, was used to characterize the compound-mediated AR degradation efficiency.", "note": "Where a name gives a salt, the structure may show the parent alone."}
{"smiles": "CC[C@]1(c2ccc(NC(=O)CN3[C@H](C)CN(CCO[C@H]4CC[C@H](N5C(=S)N(c6ccc(C#N)c(C(F)(F)F)c6)C(=O)C5(C)C)CC4)C[C@@H]3C)cc2)CCC(=O)NC1=O", "note": "[Cmpd 7, 2-((2S,6R)-4-(2-((trans-4-(3-(4-Cyano-3-(trifluoromethyl)phenyl)-5,5-dimethyl-4-oxo-2-thioxoimidazolidin-1-yl)cyclohexyl)oxy)ethyl)-2,6-dimethylpiperazin-1-yl)-N-(4-((R)-3-ethyl-2,6-dioxopiperidin-3-yl)phenyl)acetamide hydrochloride]", "values": [{"measurement": "DC50", "result": "0.1 to 10", "unit": "µM"}, {"measurement": "Ymin", "setting": "class symbols", "result": "*** (30%<Y<80%)"}]}
{"smiles": "C[C@@H]1CN(CCO[C@H]2CC[C@H](N3C(=S)N(c4cnc(C#N)c(Cl)c4)C(=O)C3(C)C)CC2)C[C@H](C)N1CC(=O)Nc1ccc(C2CCC(=O)NC2=O)cc1", "note": "(stereo partly drawn) [Cmpd 11, 2-((2R,6S)-4-(2-((trans-4-(3-(5-Chloro-6-cyanopyridin-3-yl)-5,5-dimethyl-4-oxo-2-thioxoimidazolidin-1-yl)cyclohexyl)oxy)ethyl)-2,6-dimethylpiperazin-1-yl)-N-(4-(2,6-dioxopiperidin-3-yl)phenyl)acetamide hydrochloride]", "values": [{"measurement": "DC50", "result": "≤ 0.005", "unit": "µM"}, {"measurement": "Ymin", "setting": "class symbols", "result": "** (20%<Y≤30%)"}]}
{"smiles": "CC1(C)C(=O)N(c2cnc(C#N)c(C(F)(F)F)c2)C(=S)N1[C@H]1CC[C@H](OCCC2CCN(CC(=O)Nc3ccc(C4CCC(=O)NC4=O)cc3)CC2(F)F)CC1", "note": "(stereo partly drawn) [Cmpd 44, 2-(4-(2-(((trans)-4-(3-(6-Cyano-5-(trifluoromethyl)pyridin-3-yl)-5,5-dimethyl-4-oxo-2-thioxoimidazolidin-1-yl)cyclohexyl)oxy)ethyl)-3,3-difluoropiperidin-1-yl)-N-(4-(2,6-dioxopiperidin-3-yl)phenyl)acetamide]", "values": [{"measurement": "DC50", "result": "≤ 0.005", "unit": "µM"}, {"measurement": "Ymin", "setting": "given as numbers", "result": "12 % of DMSO control"}]}
{"smiles": "C[C@@H]1C[C@H](OCC[C@H]2CC[C@H](N3C(=S)N(c4cnc(C#N)c(C(F)(F)F)c4)C(=O)C3(C)C)CC2)C[C@H](C)N1CC(=O)Nc1ccc(C2CCC(=O)NC2=O)cc1", "note": "(stereo partly drawn) [Cmpd 39, 2-((2R,4r,6S)-4-(2-((trans)-4-(3-(6-Cyano-5-(trifluoromethyl)pyridin-3-yl)-5,5-dimethyl-4-oxo-2-thioxoimidazolidin-1-yl)cyclohexyl)ethoxy)-2,6-dimethylpiperidin-1-yl)-N-(4-(2,6-dioxopiperidin-3-yl)phenyl)acetamide]", "values": [{"measurement": "DC50", "result": "≤ 0.005", "unit": "µM"}, {"measurement": "Ymin", "setting": "given as numbers", "result": "14 % of DMSO control"}]}
{"smiles": "C[C@@H]1CN(CCO[C@H]2CC[C@H](N3C(=S)N(c4ccc(C#N)c(C(F)(F)F)c4)C(=O)C3(C)C)CC2)C[C@H](C)N1CC(=O)Nc1ccc(C2(C)CCC(=O)NC2=O)cc1", "note": "(single isomer, unassigned) [Cmpd 10, hydrochloride]", "values": [{"measurement": "DC50", "result": "0.1 to 10", "unit": "µM"}, {"measurement": "Ymin", "setting": "class symbols", "result": "*** (30%<Y<80%)"}]}
{"smiles": "CC1(C)C(=O)N(c2ccc(C#N)c(C(F)(F)F)c2)C(=S)N1[C@H]1CC[C@H](CCCN2CCN(CC(=O)Nc3ccc(C4CCC(=O)NC4=O)cc3)[C@@H](C(F)(F)F)C2)CC1", "note": "(stereo partly drawn) [Cmpd 36, 2-((R)-4-(3-((trans)-4-(3-(4-Cyano-3-(trifluoromethyl)phenyl)-5,5-dimethyl-4-oxo-2-thioxoimidazolidin-1-yl)cyclohexyl)propyl)-2-(trifluoromethyl)piperazin-1-yl)-N-(4-(2,6-dioxopiperidin-3-yl)phenyl)acetamide]", "values": [{"measurement": "DC50", "result": "0.015 to 0.1", "unit": "µM"}, {"measurement": "Ymin", "setting": "given as numbers", "result": "24 % of DMSO control"}]}
{"smiles": "C[C@@H]1C[C@H](OCCC[C@H]2CC[C@H](N3C(=S)N(c4ccc(C#N)c(C(F)(F)F)c4)C(=O)C3(C)C)CC2)C[C@H](C)N1CC(=O)Nc1ccc(C2CCC(=O)NC2=O)cc1", "note": "(stereo partly drawn) [Cmpd 37, 2-((2R,4r,6S)-4-(3-((trans)-4-(3-(4-Cyano-3-(trifluoromethyl)phenyl)-5,5-dimethyl-4-oxo-2-thioxoimidazolidin-1-yl)cyclohexyl)propoxy)-2,6-dimethylpiperidin-1-yl)-N-(4-(2,6-dioxopiperidin-3-yl)phenyl)acetamide]", "values": [{"measurement": "DC50", "result": "0.015 to 0.1", "unit": "µM"}, {"measurement": "Ymin", "setting": "given as numbers", "result": "19 % of DMSO control"}]}
{"smiles": "C[C@@H]1C[C@H](OCC[C@H]2CC[C@H](N3C(=S)N(c4ccc(C#N)c(C(F)(F)F)c4)C(=O)C3(C)C)CC2)C[C@H](C)N1CC(=O)Nc1ccc(C2CCC(=O)NC2=O)cc1", "note": "(stereo partly drawn) [Cmpd 40, 2-((2R,4r,6S)-4-(2-((trans)-4-(3-(4-Cyano-3-(trifluoromethyl)phenyl)-5,5-dimethyl-4-oxo-2-thioxoimidazolidin-1-yl)cyclohexyl)ethoxy)-2,6-dimethylpiperidin-1-yl)-N-(4-(2,6-dioxopiperidin-3-yl)phenyl)acetamide]", "values": [{"measurement": "DC50", "result": "0.005 to 0.015", "unit": "µM"}, {"measurement": "Ymin", "setting": "given as numbers", "result": "21 % of DMSO control"}]}
{"smiles": "C[C@@H]1C[C@H](OCCC[C@H]2CC[C@H](N3C(=S)N(c4cnc(C#N)c(C(F)(F)F)c4)C(=O)C3(C)C)CC2)C[C@H](C)N1CC(=O)Nc1ccc(C2CCC(=O)NC2=O)cc1", "note": "(stereo partly drawn) [Cmpd 38, 2-((2R,4r,6S)-4-(3-((trans)-4-(3-(6-Cyano-5-(trifluoromethyl)pyridin-3-yl)-5,5-dimethyl-4-oxo-2-thioxoimidazolidin-1-yl)cyclohexyl)propoxy)-2,6-dimethylpiperidin-1-yl)-N-(4-(2,6-dioxopiperidin-3-yl)phenyl)acetamide]", "values": [{"measurement": "DC50", "result": "0.005 to 0.015", "unit": "µM"}, {"measurement": "Ymin", "setting": "given as numbers", "result": "14 % of DMSO control"}]}
{"smiles": "CC1(C)C(=O)N(c2cnc(C#N)c(C(F)(F)F)c2)C(=S)N1[C@H]1CC[C@H](CCCN2CCN(CC(=O)Nc3ccc(C4CCC(=O)NC4=O)cc3)[C@@H](C(F)(F)F)C2)CC1", "note": "(stereo partly drawn) [Cmpd 33, 2-((R)-4-(3-((trans)-4-(3-(6-Cyano-5-(trifluoromethyl)pyridin-3-yl)-5,5-dimethyl-4-oxo-2-thioxoimidazolidin-1-yl)cyclohexyl)propyl)-2-(trifluoromethyl)piperazin-1-yl)-N-(4-(2,6-dioxopiperidin-3-yl)phenyl)acetamide]", "values": [{"measurement": "DC50", "result": "0.005 to 0.015", "unit": "µM"}, {"measurement": "Ymin", "setting": "given as numbers", "result": "17 % of DMSO control"}]}
{"smiles": "C[C@@H]1CN(CCC[C@H]2CC[C@H](N3C(=S)N(c4ccc(C#N)c(C(F)(F)F)c4)C(=O)C3(C)C)CC2)C[C@H](C)N1CC(=O)Nc1ccc(C2CCC(=O)NC2=O)cc1", "note": "(stereo partly drawn) [Cmpd 3, 2-((2R,6S)-4-(3-(trans-4-(3-(4-Cyano-3-(trifluoromethyl)phenyl)-5,5-dimethyl-4-oxo-2-thioxoimidazolidin-1-yl)cyclohexyl)propyl)-2,6-dimethylpiperazin-1-yl)-N-(4-(2,6-dioxopiperidin-3-yl)phenyl)acetamide hydrochloride]", "values": [{"measurement": "DC50", "result": "0.005 to 0.015", "unit": "µM"}, {"measurement": "Ymin", "setting": "class symbols", "result": "** (20%<Y≤30%)"}]}
{"smiles": "C[C@@H]1CN(CCO[C@H]2CC[C@H](N3C(=S)N(c4ccc(C#N)c(C(F)(F)F)c4)C(=O)C3(C)C)CC2)C[C@H](C)N1CCC(=O)Nc1ccc(C2CCC(=O)NC2=O)cc1", "note": "(stereo partly drawn) [Cmpd 5, 3-((2R,6S)-4-(2-((trans-4-(3-(4-Cyano-3-(trifluoromethyl)phenyl)-5,5-dimethyl-4-oxo-2-thioxoimidazolidin-1-yl)cyclohexyl)oxy)ethyl)-2,6-dimethylpiperazin-1-yl)-N-(4-(2,6-dioxopiperidin-3-yl)phenyl)propanamide]", "values": [{"measurement": "DC50", "result": "0.005 to 0.015", "unit": "µM"}, {"measurement": "Ymin", "setting": "class symbols", "result": "*** (30%<Y<80%)"}]}
{"smiles": "C[C@@H]1C[C@H](CCO[C@H]2CC[C@H](N3C(=S)N(c4cnc(C#N)c(C(F)(F)F)c4)C(=O)C3(C)C)CC2)C[C@H](C)N1CC(=O)Nc1ccc(C2CCC(=O)NC2=O)cc1", "note": "(stereo partly drawn) [Cmpd 27, 2-((2R,4r,6S)-4-(2-(((trans)-4-(3-(6-Cyano-5-(trifluoromethyl)pyridin-3-yl)-5,5-dimethyl-4-oxo-2-thioxoimidazolidin-1-yl)cyclohexyl)oxy)ethyl)-2,6-dimethylpiperidin-1-yl)-N-(4-(2,6-dioxopiperidin-3-yl)phenyl)acetamide]", "values": [{"measurement": "DC50", "result": "≤ 0.005", "unit": "µM"}, {"measurement": "Ymin", "setting": "given as numbers", "result": "11 % of DMSO control"}]}
